PubChem BioAssay AID1053123 (Broad Institute, 2014)

System: CHO ER-LucT cells, luciferase glycosylation gel shift, 24 h
Assay: luciferase glycan loss by western gel shift – CHO ER-LucT cells, western blot, cherry-picked, dose response (AID 1053123)

Structure (SMILES)	AC50
Cc1cnc(NC(=O)c2cc(S(=O)(=O)N(C)C)ccc2N2CCCC2)s1	7640 nM
Cc1csc(NC(=O)c2cc(S(=O)(=O)N(C)C)ccc2N2CCCC2)n1	395 nM
Cc1cnc(NC(=O)c2cc(S(=O)(=O)N(C)C)ccc2N2CCC2)s1	10500 nM
Cc1cnc(NC(=O)c2cc(S(=O)(=O)N3CCCC3)ccc2N2CCCC2)s1	2520 nM
Cc1cnc(NC(=O)c2cc(S(=O)(=O)N3CCOCC3)ccc2N2CCCC2)s1	950 nM
